What was measured:
[1] = test system: unfed adult cat fleas (Ctenocephalides felis); test: Ctenocephalides felis - oral test; format: in vivo; details: application rate 100 ppm in citrated cattle blood, after 2 days
Method: (§1) Solvent: dimethyl sulphoxide
To produce a suitable active compound preparation, 10 mg of active compound are mixed with 0.5 ml of dimethyl sulphoxide. Dilution with citrated cattle blood gives the desired concentration.
About 20 unfed adult cat fleas (Ctenocephalides felis) are placed into a chamber which is closed at the top and bottom with gauze. A metal cylinder whose bottom end is closed with parafilm is placed onto the chamber. The cylinder contains the blood/active compound preparation, which can be imbibed by the fleas through the parafilm membrane.
After 2 days, the kill in % is determined. 100% means that all of the fleas have been killed; 0% means that none of the fleas have been killed.

[2] = test system: adult houseflies (Musca domestica); test: Musca domestica test; format: in vivo; details: application rate 100 ppm, after 2 days
Method: as §1
(§2) To produce a suitable active compound preparation, 10 mg of active compound are mixed with 0.5 ml of dimethyl sulphoxide, and the concentrate is diluted with water to the desired concentration.
Vessels containing a sponge treated with sugar solution and the active compound preparation of the desired concentration are populated with 10 adult houseflies (Musca domestica).
After 2 days, the kill in % is determined. 100% means that all of the flies have been killed; 0% means that none of the flies have been killed.

[3] = test system: green peach aphid (Myzus persicae); test: Myzus persicae - spray test; format: in vivo; details: application rate 500 g/ha, Chinese cabbage leaf discs, after 5-6 days
Method: Solvent: 78 parts by weight of acetone • • 1.5 parts by weight of dimethylformamide
(§3) Emulsifier: alkylaryl polyglycol ether
(§4) To produce a suitable active compound preparation, 1 part by weight of active compound is dissolved with the stated parts by weight of solvent and made up with water containing an emulsifier concentration of 1000 ppm until the desired concentration is attained. To produce further test concentrations, the preparation is diluted with emulsifier-containing water.
Discs of Chinese cabbage leaves (Brassica pekinensis) infested by all stages of the green peach aphid (Myzus persicae) are sprayed with an active compound preparation of the desired concentration.
After 5-6 days, the efficacy in % is determined. 100% means that all the aphids have been killed; 0% means that no aphids have been killed.

[4] = log P (neutral) by HPLC on reversed-phase column (C 18), EEC Directive 79/831 Annex V.A8; format: physicochemical; details: HPLC reversed-phase C 18, 55° C., neutral range pH 7.8, ammonium hydrogencarbonate/acetonitrile; for chromatographic logP: reversed-phase HPLC column (C 18)
[5] = test system: L1 larvae of the Australian sheep blowfly (Lucilia cuprina); test: Lucilia cuprina test; format: in vivo; details: application rate 100 ppm, after 2 days
Method: as §1, §2
About 20 L1 larvae of the Australian sheep blowfly (Lucilia cuprina) are transferred into a test vessel containing minced horsemeat and the active compound preparation of the desired concentration.
After 2 days, the kill in % is determined. 100% means that all the larvae have been killed; 0% means that no larvae have been killed.

[6] = test system: larvae of the mustard beetle (Phaedon cochleariae); test: Phaedon cochleariae - spray test; format: in vivo; details: application rate 500 g/ha, Chinese cabbage leaf discs, after 7 days
Method: (§5) Solvent: 78.0 parts by weight of acetone • • 1.5 parts by weight of dimethylformamide
as §3, §4
After 7 days, the efficacy in % is determined. 100% means that all the beetle larvae have been killed; 0% means that no beetle larvae have been killed.

[7] = test system: caterpillars of the armyworm (Spodoptera frugiperda); test: Spodoptera frugiperda - spray test; format: in vivo; details: application rate 500 g/ha, maize leaf discs, after 7 days
Method: as §5, §3, §4
Leaf discs of maize (Zea mays) are sprayed with an active compound preparation of the desired concentration and, after drying, populated with caterpillars of the armyworm (Spodoptera frugiperda).
After 7 days, the efficacy in % is determined. 100% means that all the caterpillars have been killed; 0% means that no caterpillar has been killed.

[8] = test system: engorged adult female cattle ticks (Boophilus microplus); test: Boophilus microplus - injection test; format: in vivo; details: application rate 20 μg/animal, assessed after 7 days
Method: as §1
To produce a suitable active compound preparation, 10 mg of active compound are mixed with 0.5 ml of solvent and the concentrate is diluted with solvent to the desired concentration.
1 μl of the active compound solution is injected into the abdomen of 5 engorged adult female cattle ticks (Boophilus microplus). The animals are transferred into dishes and kept in a climate-controlled room.
Efficacy is assessed after 7 days by laying of fertile eggs. Eggs which are not visibly fertile are stored in a climate-controlled cabinet until the larvae hatch after about 42 days. An efficacy of 100% means that none of the ticks has laid any fertile eggs; 0% means that all the eggs are fertile.

[9] = test system: southern root-knot nematode (Meloidogyne incognita); test: Meloidogyne incognita test; format: in vivo; details: application rate 20 ppm, lettuce, after 14 days
Method: Solvent: 125.0 parts by weight of acetone
To produce a suitable preparation of active compound, 1 part by weight of active compound is mixed with the stated amount of solvent and the concentrate is diluted with water to the desired concentration.
Vessels are filled with sand, active compound solution, an egg/larvae suspension of the southern root-knot nematode (Meloidogyne incognita) and lettuce seeds. The lettuce seeds germinate and the plants develop. The galls develop on the roots.
After 14 days, the nematicidal efficacy in % is determined by the formation of galls. 100% means that no galls were found; 0% means that the number of galls on the treated plants corresponds to the untreated control.

[10] = test system: greenhouse red spider mite (Tetranychus urticae); test: Tetranychus urticae - spray test, OP-resistant; format: in vivo; details: application rate 500 g/ha, bean leaf discs, after 6 days
Method: as §5, §3, §4
Discs of bean leaves (Phaseolus vulgaris) infested with all stages of the greenhouse red spider mite (Tetranychus urticae) are sprayed with an active compound preparation of the desired concentration.
After 6 days, the efficacy in % is determined. 100% means that all the spider mites have been killed; 0% means that no spider mites have been killed.

[11] = test system: adult cat fleas (Ctenocephalides felis); test: Ctenocephalides felis - in vitro contact tests with adult cat fleas; format: in vivo; details: application rate 5 μg/cm^2 (500 g/ha), after 48 h
Method: For the coating of the test tubes, 9 mg of active compound are first dissolved in 1 ml of acetone p.a. and then diluted to the desired concentration with acetone p.a. 250 μl of the solution are distributed homogeneously on the inner walls and the base of a 25 ml test tube by turning and rocking on an orbital shaker (rocking rotation at 30 rpm for 2 h). With 900 ppm active compound solution and internal surface 44.7 cm^2, given homogeneous distribution, an area-based dose of 5 μg/cm^2 is achieved.
After the solvent has evaporated off, the tubes are populated with 5-10 adult cat fleas (Ctenocephalides felis), sealed with a perforated plastic lid and incubated in a horizontal position at room temperature and ambient humidity. After 48 h, efficacy is determined. To this end, the test tubes are stood upright and the fleas are knocked to the base of the tube. Fleas which remain motionless at the base or move in an uncoordinated manner are considered to be dead or moribund.
100% efficacy means that all the fleas were dead or moribund. 0% efficacy means that no fleas were harmed.

SMILES	efficacy (kill in %) [1]	efficacy (kill in %) [2]	efficacy (aphids killed) [3]	log P (neutral) [4]	efficacy (kill in %) [5]	efficacy (beetle larvae killed) [6]	efficacy (caterpillars killed) [7]	efficacy (no laying of fertile eggs) [8]	chromatographic logP [4]	nematicidal efficacy (formation of galls) [9]	efficacy (spider mites killed) [10]	efficacy (fleas dead or moribund) [11]
CCS(=O)(=O)c1ccc(-n2cnn(-c3ccccc3F)c2=O)nc1-c1nc2cc(C(F)(F)F)cnc2n1C [Example I-32]	100%	100%	90%	Example I-32: logP (neutral): 3.52 1H-NMR(400.0 MHz, d6-DMSO): □ =	100%	100%	100%	80%				
CCS(=O)(=O)c1ccc(-c2ccn(-c3cccnc3)n2)nc1-c1nc2cc(C(F)(F)F)ncc2n1C [Example I-30, 2-{3-(Ethylsulfonyl)-6-[1-(pyridin-3-yl)-1H-pyrazol-3-yl]pyridin-2-yl}-3-methyl-6-(trifluoromethyl)-3H-imidazo[4,5-c]pyridine]			100%		100%	100%	100%		2.73	90%		
CCS(=O)(=O)c1ccc(-n2ccn(-c3ccc(Br)cc3)c2=O)nc1-c1nc2cc(C(F)(F)F)ncc2n1C [Example I-3]	100%	90%	90%	Example I-3: logP (neutral): 3.87 ^1H-NMR(400.0 MHz, d6-DMSO): δ =	100%	100%	100%	95%				
CCS(=O)(=O)c1ccc(-n2ncn(-c3ccccc3)c2=O)nc1-c1nc2cc(C(F)(F)F)ncc2n1C [Example I-15]	100%			Example I-15: logP (neutral): 2.70 1H-NMR(400.0 MHz, d6-DMSO): □ =	100%	100%	100%	80%		100%	70%	100%
CCS(=O)(=O)c1ccc(-n2ncn(-c3ccc(Cl)cc3)c2=O)nc1-c1nc2cc(C(F)(F)F)cnc2n1C [Example I-33, 4-(4-Chlorophenyl)-2-{5-(ethylsulfonyl)-6-[3-methyl-6-(trifluoromethyl)-3H-imidazo[4,5-b]pyridin-2-yl]pyridin-2-yl}-2,4-dihydro-3H-1,2,4-triazol-3-one]			90%			100%	100%		3.52	100%	90%	
CCS(=O)(=O)c1ccc(-n2ccc(-c3ncccc3Cl)n2)nc1-c1nc2cc(C(F)(F)F)ncc2n1C [Example I-24]				Example I-24: logP (neutral): 2.80 1H-NMR(400.0 MHz, d6-DMSO): □ =	100%	100%	100%					100%
CCS(=O)(=O)c1ccc(-n2ncn(-c3ccc(F)cc3)c2=O)nc1-c1nc2cc(C(F)(F)F)ncc2n1C [Example I-8]			100%	Example I-8: logP (neutral): 2.75 ^1H-NMR(400.0 MHz, d6-DMSO): δ =		100%	100%			90%		
CCS(=O)(=O)c1ccc(-n2ncn(-c3cccnc3)c2=O)nc1-c1nc2cc(C(F)(F)F)ncc2n1C [Example I-17]	95%		90%	Example I-17: logP (neutral): 2.06 1H-NMR(400.0 MHz, d6-DMSO): □ =	100%	100%				100%	90%	
CCS(=O)(=O)c1ccc(-n2ncn(-c3ccccc3F)c2=O)nc1-c1nc2cc(C(F)(F)F)ncc2n1C [Example I-18]	100%	85%	90%	Example I-18: logP (neutral): 2.73: 1H-NMR(400.0 MHz, d6-DMSO): □ =	100%	100%	100%	95%				100%
CCS(=O)(=O)c1ccc(-n2cnn(-c3ccccc3F)c2=O)nc1-c1nc2cc(C(F)(F)F)ncc2n1C [Example I-1]	100%	80%	90%	Example I-1: logP (neutral): 3.03 ^1H-NMR(400.0 MHz, d6-DMSO): δ =	100%	100%	100%	80%			100%	100%

From patent publication US10745398B2, “2-(het)aryl-substituted fused heterocycle derivatives as pesticides” (Bayer CropScience Aktiengesellschaft, priority 2015, dated 2020)
